Measured values: the supplement of paper PMC10883282

How the values were obtained:
Assay in all cases: relative viability vs DMSO control (72 h) (fraction); higher = more viable cells
SK-LMS-1 = system: SK-LMS-1
Outline: (§1)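 Sarcoma cell lines were plated in 384 wells to reach 80–90% confluence, treated after 24 h with 2.5 µl of serially diluted compound and held 72 h at 37 °C, 5% CO2. Relative viability was taken as percent growth from ATPLite readings, averaged over up to triplicate wells. The values were rescaled so that 1 marks full and 0 marks none.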

VA-ES-BJ = system: VA-ES-BJ
Outline: as §1

KHOS-240S = system: KHOS-240S
Outline: as §1

A204 = system: A204
Outline: as §1

MES-SA = system: MES-SA
Outline: as §1

SW1353 = system: SW1353
Outline: as §1

SK-ES-1 = system: SK-ES-1
Outline: as §1

RD = system: RD
Outline: as §1

SW872 = system: SW872
Outline: as §1

G401 = system: G401
Outline: as §1

HS729 = system: HS729
Outline: as §1

SW982 = system: SW982
Outline: as §1

Cc1cc2c(F)c(Oc3ncnn4cc(OC[C@@H](C)O)c(C)c34)ccc2[nH]1 [Brivanib]
Conditions	relative viability
A204, 0.00017 µM	1.05
A204, 0.00051 µM	1.035
A204, 0.00152 µM	1.02
A204, 0.00457 µM	1.07
A204, 0.01372 µM	1.06
A204, 0.04115 µM	1.03
A204, 0.1235 µM	1.01
A204, 0.3704 µM	1.01
A204, 1.111 µM	0.987
A204, 3.333 µM	0.95
A204, 10 µM	0.642
G401, 0.00017 µM	0.939
G401, 0.00051 µM	0.989
G401, 0.00152 µM	0.965
G401, 0.00457 µM	0.921
G401, 0.01372 µM	0.969
G401, 0.04115 µM	0.979
G401, 0.1235 µM	0.964
G401, 0.3704 µM	0.99
G401, 1.111 µM	0.979
G401, 3.333 µM	0.955
G401, 10 µM	0.922
HS729, 0.00017 µM	0.93
HS729, 0.00051 µM	0.949
HS729, 0.00152 µM	0.955
HS729, 0.00457 µM	0.943
HS729, 0.01372 µM	0.929
HS729, 0.04115 µM	0.912
HS729, 0.1235 µM	0.925
HS729, 0.3704 µM	0.964
HS729, 1.111 µM	0.963
HS729, 3.333 µM	0.921
HS729, 10 µM	0.856
KHOS-240S, 0.00017 µM	1.04
KHOS-240S, 0.00051 µM	1.035
KHOS-240S, 0.00152 µM	1.03
KHOS-240S, 0.00457 µM	1.05
KHOS-240S, 0.01372 µM	1.05
KHOS-240S, 0.04115 µM	1.04
KHOS-240S, 0.1235 µM	1.04
KHOS-240S, 0.3704 µM	1.05
KHOS-240S, 1.111 µM	1.03
KHOS-240S, 3.333 µM	1.041
KHOS-240S, 10 µM	0.961
MES-SA, 0.00017 µM	0.897
MES-SA, 0.00051 µM	0.908
MES-SA, 0.00152 µM	0.8964
MES-SA, 0.00457 µM	0.892
MES-SA, 0.01372 µM	0.919
MES-SA, 0.04115 µM	0.917
MES-SA, 0.1235 µM	0.921
MES-SA, 0.3704 µM	0.935
MES-SA, 1.111 µM	0.934
MES-SA, 3.333 µM	0.926
MES-SA, 10 µM	0.636
RD, 0.00017 µM	1.07
RD, 0.00051 µM	1.06
RD, 0.00152 µM	1.08
RD, 0.00457 µM	1.07
RD, 0.01372 µM	1.11
RD, 0.04115 µM	1.1
RD, 0.1235 µM	1.1
RD, 0.3704 µM	1.091
RD, 1.111 µM	1.08
RD, 3.333 µM	1.07
RD, 10 µM	0.964
SK-ES-1, 0.00017 µM	1.04
SK-ES-1, 0.00051 µM	1.04
SK-ES-1, 0.00152 µM	1.07
SK-ES-1, 0.00457 µM	1.07
SK-ES-1, 0.01372 µM	1.02
SK-ES-1, 0.04115 µM	1.05
SK-ES-1, 0.1235 µM	1.04
SK-ES-1, 0.3704 µM	0.997
SK-ES-1, 1.111 µM	1.022
SK-ES-1, 3.333 µM	1.06
SK-ES-1, 10 µM	0.952
SK-LMS-1, 0.00017 µM	1.03
SK-LMS-1, 0.00051 µM	1.03
SK-LMS-1, 0.00152 µM	1.02
SK-LMS-1, 0.00457 µM	1.03
SK-LMS-1, 0.01372 µM	1.02
SK-LMS-1, 0.04115 µM	1.03
SK-LMS-1, 0.1235 µM	1.06
SK-LMS-1, 0.3704 µM	1.02
SK-LMS-1, 1.111 µM	1.04
SK-LMS-1, 3.333 µM	1.03
SK-LMS-1, 10 µM	0.687
SW872, 0.00017 µM	0.989
SW872, 0.00051 µM	0.999
SW872, 0.00152 µM	0.996
SW872, 0.00457 µM	1.04
SW872, 0.01372 µM	1.009
SW872, 0.04115 µM	1
SW872, 0.1235 µM	1.03
SW872, 0.3704 µM	1.05
SW872, 1.111 µM	1.06
SW872, 3.333 µM	1.056
SW872, 10 µM	1.02
SW982, 0.00017 µM	1.03
SW982, 0.00051 µM	1.03
SW982, 0.00152 µM	1.05
SW982, 0.00457 µM	1.07
SW982, 0.01372 µM	1.05
SW982, 0.04115 µM	1.05
SW982, 0.1235 µM	1.035
SW982, 0.3704 µM	1.06
SW982, 1.111 µM	1.034
SW982, 3.333 µM	1.07
SW982, 10 µM	1.06
SW1353, 0.00017 µM	0.963
SW1353, 0.00051 µM	0.991
SW1353, 0.00152 µM	0.952
SW1353, 0.00457 µM	0.96
SW1353, 0.01372 µM	0.976
SW1353, 0.04115 µM	0.935
SW1353, 0.1235 µM	0.944
SW1353, 0.3704 µM	1.01
SW1353, 1.111 µM	0.982
SW1353, 3.333 µM	1
SW1353, 10 µM	0.997
VA-ES-BJ, 0.00017 µM	1.01
VA-ES-BJ, 0.00051 µM	1.03
VA-ES-BJ, 0.00152 µM	1
VA-ES-BJ, 0.00457 µM	0.996
VA-ES-BJ, 0.01372 µM	0.96
VA-ES-BJ, 0.04115 µM	1
VA-ES-BJ, 0.1235 µM	1.011
VA-ES-BJ, 0.3704 µM	1.03
VA-ES-BJ, 1.111 µM	1.06
VA-ES-BJ, 3.333 µM	1.07
VA-ES-BJ, 10 µM	1.07
